Results published in PubChem BioAssay (NCI).
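Step 1: Grow cells in 96-well plates. Step 2: Expose to compound for 48 hours at 5 concentrations. Step 3: Interpolate endpoints linearly; if unreached, use highest concentration. GI50 marks 50% less growth. TGI: concentration producing complete growth inhibition.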

Key:
Assay in all cases: inhibition of tumour cell growth, NCI panel, 48 h
[1] = tested on: HOP-92 NSCLC
[2] = tested on: SR leukemia
[3] = tested on: MALME-3M melanoma
[4] = tested on: SNB-75 CNS
[5] = tested on: UO-31 renal
[6] = tested on: SK-MEL-2 melanoma
[7] = tested on: 786-0 renal
[8] = tested on: ACHN renal
[9] = tested on: U251 CNS
[10] = tested on: BT-549 breast
[11] = tested on: CAKI-1 renal
[12] = tested on: HCT-15 colon
[13] = tested on: MOLT-4 leukemia
[14] = tested on: CCRF-CEM leukemia
[15] = tested on: HL-60(TB) leukemia
[16] = tested on: SF-295 CNS
[17] = tested on: TK-10 renal
[18] = tested on: MDA-MB-435
[19] = tested on: SF-268 CNS
[20] = tested on: HCT-116 colon
[21] = tested on: A498 renal
[22] = tested on: IGROV1 ovarian
[23] = tested on: SK-MEL-5 melanoma
[24] = tested on: PC-3 prostate
[25] = tested on: COLO 205 colon
[26] = tested on: SNB-19 CNS
[27] = tested on: RXF 393 renal
[28] = tested on: SW-620 colon
[29] = tested on: SK-OV-3 ovarian
[30] = tested on: SF-539 CNS
[31] = tested on: M14 melanoma
[32] = tested on: HCC-2998 colon
[33] = tested on: SN12C renal
[34] = tested on: HS 578T breast
[35] = tested on: MDA-MB-231 breast
[36] = tested on: T-47D breast
[37] = tested on: UACC-257 melanoma
[38] = tested on: NCI-H460 lung
[39] = tested on: NCI-H23 lung
[40] = tested on: K-562 leukemia
[41] = tested on: NCI-H226 lung
[42] = tested on: OVCAR-5 ovarian
[43] = tested on: EKVX NSCLC
[44] = tested on: LOX IMVI melanoma
[45] = tested on: OVCAR-8 ovarian
[46] = tested on: OVCAR-3 ovarian
[47] = tested on: DU-145 prostate
[48] = tested on: KM12 colon
[49] = tested on: NCI-H522 lung
[50] = tested on: MCF7 breast
[51] = tested on: SK-MEL-28 melanoma
[52] = tested on: A549 NSCLC
[53] = tested on: UACC-62 melanoma
[54] = tested on: OVCAR-4 ovarian
[55] = tested on: HT29 colon
[56] = tested on: NCI/ADR-RES ovarian

COC(=O)c1cc2c3ccccc3n3c(=O)c4cc5ccccc5nc4c(n1)c23
GI50 [1]: > 100 µM
TGI [1]: > 100 µM
GI50 [2]: > 100 µM
TGI [2]: > 100 µM
GI50 [3]: > 100 µM
TGI [3]: > 100 µM
GI50 [4]: > 100 µM
TGI [4]: > 100 µM
GI50 [5]: > 100 µM
TGI [5]: > 100 µM
GI50 [6]: > 100 µM
TGI [6]: > 100 µM
GI50 [7]: > 100 µM
TGI [7]: > 100 µM
GI50 [8]: > 100 µM
TGI [8]: > 100 µM
GI50 [9]: > 100 µM
TGI [9]: > 100 µM
GI50 [10]: > 100 µM
TGI [10]: > 100 µM
GI50 [11]: > 100 µM
TGI [11]: > 100 µM
GI50 [12]: > 100 µM
TGI [12]: > 100 µM
GI50 [13]: > 100 µM
TGI [13]: > 100 µM
GI50 [14]: > 100 µM
TGI [14]: > 100 µM
GI50 [15]: > 100 µM
TGI [15]: > 100 µM
GI50 [16]: > 100 µM
TGI [16]: > 100 µM
GI50 [17]: > 100 µM
TGI [17]: > 100 µM
GI50 [18]: > 100 µM
TGI [18]: > 100 µM
GI50 [19]: > 100 µM
TGI [19]: > 100 µM
GI50 [20]: > 100 µM
TGI [20]: > 100 µM
GI50 [21]: > 100 µM
TGI [21]: > 100 µM
GI50 [22]: > 100 µM
TGI [22]: > 100 µM
GI50 [23]: > 100 µM
TGI [23]: > 100 µM
GI50 [24]: > 100 µM
TGI [24]: > 100 µM
GI50 [25]: > 100 µM
TGI [25]: > 100 µM
GI50 [26]: > 100 µM
TGI [26]: > 100 µM
GI50 [27]: > 100 µM
TGI [27]: > 100 µM
GI50 [28]: > 100 µM
TGI [28]: > 100 µM
GI50 [29]: > 100 µM
TGI [29]: > 100 µM
GI50 [30]: > 100 µM
TGI [30]: > 100 µM
GI50 [31]: > 100 µM
TGI [31]: > 100 µM
GI50 [32]: > 100 µM
TGI [32]: > 100 µM
GI50 [33]: > 100 µM
TGI [33]: > 100 µM
GI50 [34]: > 100 µM
TGI [34]: > 100 µM
GI50 [35]: > 100 µM
TGI [35]: > 100 µM
GI50 [36]: > 100 µM
TGI [36]: > 100 µM
GI50 [37]: > 100 µM
TGI [37]: > 100 µM
GI50 [38]: > 100 µM
TGI [38]: > 100 µM
GI50 [39]: > 100 µM
TGI [39]: > 100 µM
GI50 [40]: > 100 µM
TGI [40]: > 100 µM
GI50 [41]: > 100 µM
TGI [41]: > 100 µM
GI50 [42]: > 100 µM
TGI [42]: > 100 µM
GI50 [43]: > 100 µM
TGI [43]: > 100 µM
GI50 [44]: > 100 µM
TGI [44]: > 100 µM
GI50 [45]: > 100 µM
TGI [45]: > 100 µM
GI50 [46]: > 100 µM
TGI [46]: > 100 µM
GI50 [47]: > 100 µM
TGI [47]: > 100 µM
GI50 [48]: > 100 µM
TGI [48]: > 100 µM
GI50 [49]: > 100 µM
TGI [49]: > 100 µM
GI50 [50]: > 100 µM
TGI [50]: > 100 µM
GI50 [51]: > 100 µM
TGI [51]: > 100 µM
GI50 [52]: > 100 µM
TGI [52]: > 100 µM
GI50 [53]: > 100 µM
TGI [53]: > 100 µM
GI50 [54]: > 100 µM
TGI [54]: > 100 µM
GI50 [55]: > 100 µM
TGI [55]: > 100 µM
GI50 [56]: > 100 µM
TGI [56]: > 100 µM
